The text below walks through data of US9901549B2, “Method for treating vaginal dryness by administering transient receptor potential cation channel subfamily M member 8 (TRPM8) receptor agonists” (UNIVERSIDAD MIGUEL HERNÁNDEZ DE ELCHE, priority 2010, dated 2018).

Where two headings read alike, the source gives them in different places.

The target of assay [1] is T1, TRPM8 channels (Homo sapiens, UniProt Q7Z2W7). The conditions noted are these: FL; data from Behrendt et al., 2004; cited from earlier work.
Assay [2] relates to cold-sensitive nerve terminals of the mouse cornea. In words: Nerve terminal impulse (NTI) activity recorded in vitro from cold-sensitive nerve terminals of the cornea. As to the method: To define functionally the thermal sensitivity and encoding capacity of intact cold-sensitive nerve terminals, nerve terminal impulse (NTI) activity from the cornea of wild-type mice eyes was recorded ‘in vitro’ (Brock, J. A., et al., 1998. J. Physiol 512:211-217).
J. Neurosci. 26:12512-12525, Jordt, S. E. et al. 2004. Nature 427:260-265).

Assay [3] shares this test system. Described as above. The source holds these as a separate data set.
Assay [4] deals with T1, TRPM8 channels. The note with it: CI; data from Bodding et al., 2007; cited from earlier work.
Assay [5] concerns the target T1, TRPM8 channels. The note with it: EP, cited from earlier work.
For assay [6], the system named is eyes of TRPM8(−/−) and wild type mice. Description: Tear flow (phenol red thread) after topical application to the eye. The assay is classed as in vivo, mouse. The note with it: capsaicin 1 μM, AITC 500 μM. As to the method:
FIG. 4. Dependence of tear secretion rate on corneal temperature. a. […] Shaded and filled columns represent tearing rate in animals at mean neutral (28.4° C.) or hot temperature (42.5° C.), respectively. The number of measures of successive columns is 35, 11, 23, 9 and 6 observations **p<0.01, ***p<0.001 Mann-Whitney test). b. Increase in tearing rate measured in wild type animals (black columns) and TRPM8−/−(grey columns) elicited by application during 60 s, of a filter paper soaked in capsaicin 1 μM (n=12 and 15) or 500 μM allyl-isothyocyanate. […] Measurements of tear secretion were performed 1 minute after removing the paper with the drug. Statistically significant differences were found with respect to baseline lacrimation, using the Wilcoxon test (*p<0.05, ***p<0.001). c. Mean tearing rate expressed as the wetted length value of the phenol red thread, measured in the eyes of 11 human volunteers at environment temperatures of 18° C., 25° C. and 43° C. that lead to corneal surface temperatures of 32.4±0.4° C.; 34.2±0.1° C. and 36.0±0.2° C. respectively.
Next, it was reasoned that if tear production is associated to the neural activity of cold thermoreceptor fibers, basal tear flow should be reduced in TRPM8(−/−) mice, in which spontaneous activity is absent.

In assay [7] the target is T2, native TRPM8 channel (Homo sapiens, UniProt Q7Z2W7). The note with it: EP, cited from earlier work.
For assay [8], the target named is T2, native TRPM8 channel. The conditions noted are these: CI, cited from earlier work.
Assay [9] deals with T2, native TRPM8 channel. The conditions noted are these: read-out: IC50 menthol; SF; 20 μM menthol at 22° C.; Ortar et al. 2010; cited from earlier work.
Assay [10] concerns the target T2, native TRPM8 channel. The conditions noted are these: read-out: IC50 menthol; 100 μM menthol; FL; Behrendt et al. 2004; cited from earlier work.
The mark [11] stands for this setting: cold, +80 mV, Malkia et al. 2007, read-out: IC50 cold.
Setting [12] is: cold, Malkia et al. 2007, read-out: IC50 cold.
[13] abbreviates: read-out: IC50 menthol, 100 μM menthol, −70 mV, Weil 2005.

T1 sequence (Q7Z2W7 whole entry): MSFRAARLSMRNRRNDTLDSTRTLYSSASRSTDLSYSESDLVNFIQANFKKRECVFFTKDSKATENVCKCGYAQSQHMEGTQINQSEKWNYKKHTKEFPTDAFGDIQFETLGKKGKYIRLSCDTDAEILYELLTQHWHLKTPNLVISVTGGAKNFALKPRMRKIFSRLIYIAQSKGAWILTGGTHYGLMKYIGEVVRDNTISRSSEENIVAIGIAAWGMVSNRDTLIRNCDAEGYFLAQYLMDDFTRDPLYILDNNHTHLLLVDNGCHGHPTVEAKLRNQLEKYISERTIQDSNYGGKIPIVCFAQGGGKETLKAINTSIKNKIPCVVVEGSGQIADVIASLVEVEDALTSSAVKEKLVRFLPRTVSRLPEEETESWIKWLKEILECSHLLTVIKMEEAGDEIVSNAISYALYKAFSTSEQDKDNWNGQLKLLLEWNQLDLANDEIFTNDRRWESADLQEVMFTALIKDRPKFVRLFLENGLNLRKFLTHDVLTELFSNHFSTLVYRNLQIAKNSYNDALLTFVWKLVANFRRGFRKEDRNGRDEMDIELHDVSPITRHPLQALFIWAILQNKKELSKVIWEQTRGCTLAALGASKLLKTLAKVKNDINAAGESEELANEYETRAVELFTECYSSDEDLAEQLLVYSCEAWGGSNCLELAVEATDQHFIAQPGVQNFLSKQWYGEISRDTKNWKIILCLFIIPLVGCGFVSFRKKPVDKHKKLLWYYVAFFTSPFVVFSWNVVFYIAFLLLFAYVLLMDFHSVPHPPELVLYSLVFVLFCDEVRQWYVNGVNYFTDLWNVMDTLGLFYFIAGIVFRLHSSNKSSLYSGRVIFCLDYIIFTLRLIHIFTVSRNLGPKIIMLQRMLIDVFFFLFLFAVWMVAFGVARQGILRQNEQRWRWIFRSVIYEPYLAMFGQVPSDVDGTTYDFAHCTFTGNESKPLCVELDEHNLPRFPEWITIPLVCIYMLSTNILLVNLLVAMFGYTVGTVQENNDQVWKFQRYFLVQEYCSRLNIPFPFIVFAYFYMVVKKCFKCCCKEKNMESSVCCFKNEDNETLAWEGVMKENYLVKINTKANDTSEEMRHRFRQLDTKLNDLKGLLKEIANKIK
T2 sequence (Q7Z2W7 whole entry): as above

For orientation: EC50 means the concentration at which the effect is half-maximal. With `CC(C)[C@@H]1CC[C@@H](C)CC12OCC(CO)O2` (mixture of isomers) [Frescolat MGA], the EC50 in assay [1] was 4.8 ± 1.1 µM.
Turning to `CC(C)[C@@H]1CC[C@@H](C)C[C@H]1OCC(O)CO` (mixture of isomers) [Cooling Agent 10], the EC50 in assay [1] was 6 ± 2.2 µM.
As for `CC(C)[C@@H]1CC[C@@H](C)C[C@H]1O` (relative stereo) [Menthol], in assay [2] (during perfusion with menthol 50 μM, 5% before treatment), the “percentage of terminals with a bursting firing pattern at 34° C.” value came to 44%. Moreover, the “temperature of silencing during cooling ramps” value in assay [2] (menthol 50 μM, control 23.8±0.4) amounted to 25.2±0.4 °C. For the same compound, the “temperature at which peak frequency is reached during cooling ramps” value in assay [2] (menthol 50 μM, control 26.7±0.5, n=44) is 28.6±0.5 °C. For the same compound, the spontaneous activity in assay [2] (menthol 50 μM, from 3.4±0.3 before, n=44) is on record as 18.4±1.4 impulses/s. In addition, the “tested endings with increased spontaneous activity” value in assay [2] (menthol 50 μM, n=44) is recorded as 98%. Further, in assay [3] (50 μM menthol perfusion, TRPM8(−/−) corneas, n=6), the “trigger frequency at basal temperature of 34° C. or during cooling ramps” value was “no increase”. Besides, the “trigger frequency in basal temperature, cold threshold and peak frequency” value in [3] (menthol 50 μM, TRPM8(+/−) mice, significantly less than in TRPM8(+/+)) is listed as “enhanced”.
With `COc1ccc(NC(=O)[C@@H]2C[C@H](C)CC[C@H]2C(C)C)cc1` (stereo in doubt) [WS-12, 2-isopropyl-5-methyl-cyclohexanecarboxylic acid (4-methoxyphenyl)-amide], the EC50 is 0.193 µM in [4]; 0.039 µM in [5] (data from Beck et al., 2007); 0.68 µM in assay [5] (data from Bodding et al., 2007).
As to `C=CCN=C=S` [AITC, allyl-isothiocyanate], the “effect on spontaneous or cold-evoked activity” value in assay [2] (AITC 100 μM, 28 cold-sensitive nerve endings tested) is recorded as “failed to modify the spontaneous or cold-evoked activity in 24 of them”. In addition, the “nerve endings with significant increase in trigger frequency at basal temperature” value in assay [2] (AITC 100 μM, of 28 endings tested) is reported as “four”. Besides, the tear flow result in assay [6] was “significantly increased”.
One may read the IC50 as the concentration at which inhibition is half-maximal. As for `CC(C)(C)c1ccc(NC(=O)N2CCN(c3ncccc3Cl)CC2)cc1` [BCTC, N-(4-tert-butyl-phenyl)-4-(3-chloropyridin-2-yl) tetrahydropyrazine-1(2H)-carboxamide], the IC50 was 0.54 ± 0.04 µM in [7] (setting [11]); 0.34 ± 0.04 µM in assay [7] (read-out: IC50 menthol, 100 μM menthol, +80 mV, modified by Madrid 2006); 0.68 ± 0.06 µM in assay [8] (setting [12]). Besides, the “spontaneous activity and trigger frequency of cold- and menthol-evoked discharges” value in assay [2] (BCTC 10 μM perfusion during 90 min) is “decreased gradually and almost silenced”. The “effects of BCTC on nerve ending activity in TRPA1(−/−) mice” value in assay [2] (BCTC 10 μM, TRPA1(−/−) mice) is listed as “also observed”. Further, the “decline in activity upon removal of the drug” value in assay [2] (after BCTC 10 μM removal) was “reversed partially”.
On to `CCOC(=O)C(C)NC(=O)C1C[C@H](C)CC[C@H]1C(C)C` (some centres unmarked) [CPS-369], for which the EC50 in assay [4] was 3.6 µM.
In the case of `C[C@@H]1CN(c2ncccc2Cl)CCN1C(=O)Nc1ccc(C(F)(F)F)cc1` [CTPC, (2R)-4-(3-chloro-2-pyridinyl)-2-methyl-N-[4-(trifluoromethyl)phenyl]-1-pyperazine-carboxamide], the IC50 in assay [7] (setting [13]) is 0.131 ± 0.014 µM.
As for `Oc1cc2c(cc1O)CN(C(=S)NCCc1ccc(Cl)cc1)CCC2` [Capsazepine, N-[2-(4-chlorophenyl)ethyl]-1,3,4,5-tetrahydro-7,8-dihydroxy-2H-2-benzazepine-2-carbothioamide], the IC50 in [8] (cold, Malkia et al. 2009, read-out: IC50 cold) is 12 ± 2 µM.
Consider `Clc1ccccc1C(c1ccccc1)(c1ccccc1)n1ccnc1` [Clotrimazole, 1-[(2-chlorophenyl)diphenylmethyl]-1H-imidazol], for which the IC50 in [7] (read-out: IC50 menthol, 100 μM menthol, +50 mV, Meseguer et al. 2008) was 1.2 µM.
Consider `Nc1ccncc1` [Compound 4-AP, 4-aminopyridine], for which the “cold threshold of the endings” value in assay [2] (4-AP 100 μM) is “no parallel changes”. Also, the “mean peak frequency of cold responses depressed” value in assay [2] (4-AP 100 μM, n=9) is given as 39±6 % of the control value. For the same compound, the “units with significantly increased spontaneous activity” value in assay [2] (4-AP 100 μM, nine studied units) was “three out of nine”.
Take `CC12CCC(CC1)C(C)(C)O2` [Eucalyptol]: the EC50 is 3400 ± 400 µM in assay [5] (data from McKemy et al., 2002) and 7700 ± 2000 µM in [1].
`CC(O)C(=O)O[C@@H]1C[C@H](C)CC[C@H]1C(C)C` (some centres unmarked) [Frescolat ML]: the concentration giving a half-maximal response (EC50) in [1] was 3.3 ± 1.5 µM.
On to `CC(CC=O)CCCC(C)(C)O` (centres unmarked) [Hydroxyl-citronellal], for which, in [1], the concentration for a half-maximal effect (EC50) is 19600 ± 2200 µM.
Regarding `C=C[C@@](C)(O)CCC=C(C)C` [Linalool, Linallol], the concentration giving a half-maximal response (EC50) in assay [1] was 6700 ± 2000 µM.
Consider `CC(C)[C@@H]1CC[C@@H](C)C[C@H]1NC(=O)c1ccc(-c2ccccc2)cc1` [MAD1d, N-[(1R,2S,5R)-2-Isopropyl-5-methylcyclohexyl]biphenyl-4-carboxamide], for which the concentration for half-maximal inhibition (IC50) in [9] was 0.02 ± 0.0024 µM.
`CC1CCC(C(C)(C)O)C(O)C1` (centres unmarked) [PMD-38, p-menthane-3,8-diol]: the EC50 in assay [1] is 31 ± 1.1 µM.
Take `c1cnc2c(c1)ccc1cccnc12` [Phenanthroline]: the IC50 was 180 ± 20 µM in assay [7] (setting [11]) and 100 ± 20 µM in assay [8] (setting [12]).
As to `CCN(CCNC(=O)Nc1ccccc1Br)c1cccc(C)c1` [SB-452533, N-(2-bhromophenyl)-N′-(2-[ethyl(3-methylphenyl)amino]ethyl)urea], the IC50 in assay [7] (setting [13]) is 0.571 ± 0.077 µM.
On to `COc1ccc(CCCOC(Cn2ccnc2)c2ccc(OC)cc2)cc1` (centres unmarked) [SKF96365], for which the IC50 in assay [7] (setting [11]) is 0.8 ± 0.1 µM; in assay [8] (setting [12]), 1 ± 0.2 µM; in [8] (read-out: IC50 menthol, 100 μM menthol, modified by Madrid 2006), 3 ± 1 µM.
In the case of `CCNC(=O)C1CC(C)CCC1C(C)C` (centres unmarked) [WS-3, N-ethyl-p-menthane-3-carboxamide], in assay [1], the EC50 was 3.7 ± 1.7 µM.
Consider `CC1CCC(C(C)C)C(C(=O)NC(C)(C)CO)C1` (centres unmarked) [WS-11, 2-isopropyl-5-methyl-cyclohexanecarboxylic acid (2-hydroxy-1,1-dimethyl-ethyl)-amide], for which the concentration giving a half-maximal response (EC50) in assay [5] (data from Beck et al., 2007) was 6.25 µM.
For the compound `CC1CCC(C(C)C)C(C(=O)NC(C)(C)C)C1` (centres unmarked) [WS-14, 2-isopropyl-5-methyl-cyclohexanecarboxylic acid tert-butylamide], in assay [5] (data from Beck et al., 2007), the EC50 was 21.2 µM.
In the case of `CC1CCC(C(C)C)C(C(=O)OCC(O)CO)C1` (centres unmarked) [WS-30, 2-isopropyl-5-methyl-cyclohexanecarboxylic acid ester 2,3-dihydroxy-propyl], the EC50 in assay [4] was 5.6 µM.
With `CCCCCCCP(=O)(C(C)CC)C(C)CC` (centres unmarked) [WS-148, 1-(di-sec-butyl-phosphinoyl)-heptane], in assay [4], the EC50 is 4.1 µM.
For the compound `COc1cc(CNC(=O)CCCC/C=C/C(C)C)ccc1O` [capsaicin], the “cold-sensitive endings that responded” value in assay [2] (100 nM capsaicin, wild-type mice) is reported as 65%. In addition, the “impulse discharge evoked in active units” value in assay [3] (capsaicin 100 nM, TRPM8(−/−) corneas, six units tested) was “evoked a few impulses in two endings (5 and 8 impulses, respectively) and a vigorous, discharge lasting more than 30 s in another”. Moreover, in assay [6], the tear flow entry is listed as “significantly increased”.
As for `CC(C)(C)c1ccc(NC(=S)N2CCN(c3ncccc3Cl)CC2)cc1` [thio-BCTC, N-(4-tert-butyl-phenyl)-4-(3-chloropyridin-2-yl) tetrahydropyrazine-1(2H)-(thio)carboxamide], the IC50 in [10] is 3.5 ± 1.1 µM.
